Assay [1] concerns the target T1, Mtb IMPDH (Mycobacterium tuberculosis, UniProt P9WKI7).
T1 construct: made in house
Put plainly: IMPDH biochemical assay (inhibition of Mtb GuaB2). The settings on record: for IC50: Mtb IMPDH (GuaB2) enzyme.

Assay [2] has as its system wild-type M. tuberculosis strain H37Rv. Put plainly: microbe, parasite or virus in culture. It is filed as cell-based. The settings on record: for MIC90: wild-type M. tuberculosis H37Rv, read-out: MIC90 against WT.
[3] abbreviates: Mycobacterium tuberculosis, H37RV.

In brackets after ≈: the same amount, converted by molar mass. Like-named read-outs stand apart in the source and are kept apart here. A value given as a limit tells only on which side of the number the result lay.

This is an account of results in paper PMC6990405, “Synthesis and Structure–Activity relationship of 1-(5-isoquinolinesulfonyl)piperazine analogues as inhibitors of Mycobacterium tuberculosis IMPDH” (European Journal of Medicinal Chemistry, 2019).

By IC50 is commonly meant the concentration that gives 50% inhibition. A low value points to inhibition by little substance.

T1 sequence (P9WKI7 whole entry, looked up): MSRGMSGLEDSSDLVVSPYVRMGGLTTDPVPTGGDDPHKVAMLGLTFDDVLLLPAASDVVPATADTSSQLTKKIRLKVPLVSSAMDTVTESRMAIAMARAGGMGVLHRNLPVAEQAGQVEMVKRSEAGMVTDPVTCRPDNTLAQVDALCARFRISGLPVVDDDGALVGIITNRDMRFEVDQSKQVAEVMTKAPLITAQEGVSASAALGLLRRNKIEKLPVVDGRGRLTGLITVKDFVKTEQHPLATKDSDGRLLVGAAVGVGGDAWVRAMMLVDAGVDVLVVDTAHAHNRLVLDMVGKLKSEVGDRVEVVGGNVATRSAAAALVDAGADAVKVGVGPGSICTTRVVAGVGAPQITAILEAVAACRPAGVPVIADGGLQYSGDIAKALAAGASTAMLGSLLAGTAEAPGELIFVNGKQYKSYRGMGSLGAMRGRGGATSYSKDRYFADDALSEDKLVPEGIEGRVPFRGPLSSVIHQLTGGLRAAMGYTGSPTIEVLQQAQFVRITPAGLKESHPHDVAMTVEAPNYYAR

The compound `O=C(Nc1ccc2c(c1)OCO2)N1CCC(NS(=O)(=O)c2cccc3cnccc23)CC1` [Compound 43, 4-[(isoquinoline-5-sulfonyl)amino]-N-(2H-1,3-benzodioxol-5-yl)piperidine-1-carboxamide] had an IC50 in assay [1] of over 100000 nM. Moreover, the MIC90 in assay [2] (setting [3]) is over 100 µM.

Turning to `CC1CN(S(=O)(=O)c2cccc3cnccc23)CCN1C(=O)C1CCCCC1` (centres unmarked) [Compound 3, Cyclohexyl[4-(isoquinoline-5-sulfonyl)-2-methylpiperazin-1-yl]methanone], in assay [1], the concentration for half-maximal inhibition (IC50) is over 100000 nM. In addition, in assay [2] (setting [3]), the MIC90 was 100 µM (≈ 40.2 µg/mL).

The compound `COc1cc(C(=O)N2CCN(S(=O)(=O)c3cccc4cnccc34)CC2)cc(OC)c1OC` [Compound 20, [4-(isoquinoline-5-sulfonyl)piperazin-1-yl](3,4,5-trimethoxyphenyl)methanone] displayed a half-inhibitory concentration (IC50) in assay [1] of 12000 ± 500 nM. Besides, the MIC90 in assay [2] (setting [3]) is 15.6 µM (≈ 7.36 µg/mL).

In turn, `COc1ccc(CC(=O)N2CCN(S(=O)(=O)c3cccc4cnccc34)CC2)c(OC)c1` [Compound 27, 1-[4-(isoquinoline-5-sulfonyl)piperazin-1-yl]-2-(2,4-dimethoxyphenyl)ethan-1-one] came in with an IC50 in assay [1] of 1980 ± 100 nM. Further, the MIC90 in assay [2] (setting [3]) is 250 µM (≈ 114 µg/mL).

Turning to `O=C(C1CCCCC1)N1CCC(NS(=O)(=O)c2cccc3cnccc23)CC1` [Compound 5, N-[1-(cyclohexanecarbonyl)piperidin-4-yl]isoquinoline-5-sulfonamide], half-maximal inhibition in assay [1] (IC50) was put at 14700 ± 300 nM. Further, the MIC90 in assay [2] (setting [3]) was over 100 µM.

Compound `Cc1ccccc1CNC(=O)N1CCN(S(=O)(=O)c2cccc3cnccc23)CC1` [Compound 48, 4-(isoquinolin-5-ylsulfonyl)-N-(2-methylbenzyl)piperazine-1-carboxamide] registered an IC50 in assay [1] of 270 ± 30 nM. For the same compound, in assay [2] (setting [3]), the MIC90 was 3.9 µM (≈ 1.66 µg/mL).

The compound `O=C(Nc1ccc(Cl)c(C(F)(F)F)c1)N1CCN(S(=O)(=O)c2cccc3cnccc23)CC1` [Compound 34, N-(4-chloro-3-(trifluoromethyl)phenyl)-4-(isoquinolin-5-ylsulfonyl)piperazine-1-carboxamide] registered an IC50 in assay [1] of 160 ± 100 nM. In addition, the MIC90 in assay [2] (setting [3]) came out at 25 µM (≈ 12.5 µg/mL).

As for `Cc1ccc(NC(=O)N2CCN(S(=O)(=O)c3cccc4cnccc34)CC2)c([N+](=O)[O-])c1` [Compound 39, 4-(isoquinolin-5-ylsulfonyl)-N-(4-methyl-2-nitrophenyl)piperazine-1-carboxamide], half-maximal inhibition in assay [1] (IC50) was put at 600 ± 30 nM. Further, the MIC90 in assay [2] turned out to be 25 µM (≈ 11.4 µg/mL).

Take `Cc1cccc(CC(=O)N2CCN(S(=O)(=O)c3cccc4cnccc34)CC2)c1` [Compound 28, 1-(4-(isoquinolin-5-ylsulfonyl)piperazin-1-yl)-2-(m-tolyl)ethan-1-one]: in assay [1], the IC50 came to 11500 ± 300 nM. In addition, in assay [2] (setting [3]), the MIC90 is 250 µM (≈ 102 µg/mL).

Turning to `O=C(NCCNS(=O)(=O)c1cccc2cnccc12)c1cc([N+](=O)[O-])cc([N+](=O)[O-])c1` [Compound 21, N-{2-[(isoquinoline-5-sulfonyl)amino]ethyl}-3,5-dinitrobenzamide], the 50% inhibitory concentration (IC50) in assay [1] was determined as 300 ± 20 nM. For the same compound, in assay [2] (setting [3]), the MIC90 was 15.6 µM (≈ 6.95 µg/mL).

Compound `CC1CCCCC1C(=O)N1CCN(S(=O)(=O)c2cccc3cnccc23)CC1` (centres unmarked) [Compound 13, [4-(isoquinoline-5-sulfonyl)piperazin-1-yl](2-methylcyclohexyl)methanone] had an IC50 in assay [1] of 84 nM. Moreover, in assay [2] (setting [3]), the MIC90 is 31.2 µM (≈ 12.5 µg/mL).

In the case of `O=C(CC1CCCCC1)N1CCN(S(=O)(=O)c2cccc3cnccc23)CC1` [Compound 22, 2-Cyclohexyl-1-(4-(isoquinolin-5-ylsulfonyl)piperazin-1-yl)ethan-1-one], the IC50 in assay [1] was 230 ± 20 nM. The MIC90 in assay [2] (setting [3]) came to 31.2 µM (≈ 12.5 µg/mL).

Turning to `O=C(c1ccccc1)N1CCN(S(=O)(=O)c2cccc3cnccc23)CC1` [Compound 15, [4-(isoquinoline-5-sulfonyl)piperazin-1-yl](phenyl)methanone], in assay [1], 8100 ± 100 nM corresponded to half-maximal inhibition (IC50). Further, the MIC90 in assay [2] (setting [3]) and in assay [2] was over 100 µM in each case.

`CC1(C(=O)N2CCN(S(=O)(=O)c3cccc4cnccc34)CC2)CCCCC1` [Compound 12, [4-(isoquinoline-5-sulfonyl)piperazin-1-yl](1-methylcyclohexyl)methanone] had an IC50 in assay [1] of 2400 ± 10 nM. Moreover, in assay [2] (setting [3]), the MIC90 was found to be 250 µM (≈ 100 µg/mL).

`O=C(Nc1cccc(Cl)c1Cl)N1CCN(S(=O)(=O)c2cccc3cnccc23)CC1` [Compound 37, N-(2,3-dichlorophenyl)-4-(isoquinolin-5-ylsulfonyl)piperazine-1-carboxamide] returned an IC50 in assay [1] of 900 ± 60 nM. Besides, the MIC90 in assay [2] (setting [3]) stood at 125 µM (≈ 58.2 µg/mL).

Take `COc1cccc(CNC(=O)N2CCN(S(=O)(=O)c3cccc4cnccc34)CC2)c1` [Compound 47, 4-(isoquinolin-5-ylsulfonyl)-N-(3-methoxybenzyl)piperazine-1-carboxamide]: the IC50 in assay [1] was 35 ± 2 nM. The “fold greater potency than 1 (IMPDH)” value in assay [1] (relative to compound 1) is listed as about 3 fold. In addition, the MIC90 in assay [2] (setting [3]) is 3.1 µM (≈ 1.37 µg/mL).

Compound `O=C(C1CCCCC1)N1CCN(S(=O)(=O)c2cccc3ccccc23)CC1` [Compound 7, Cyclohexyl[4-(naphthalene-1-sulfonyl)piperazin-1-yl]methanone] came in with an IC50 in assay [1] of 3000 ± 100 nM. Further, the MIC90 in assay [2] (setting [3]) is over 100 µM.

In assay [1], `Cc1ccc(NC(=O)N2CCN(S(=O)(=O)c3cccc4cnccc34)CC2)cc1Cl` [Compound 38, N-(3-chloro-4-methylphenyl)-4-(isoquinolin-5-ylsulfonyl)piperazine-1-carboxamide] had an IC50 of 1600 ± 200 nM. Further, the MIC90 in assay [2] (setting [3]) amounted to 100 µM (≈ 44.5 µg/mL).

In the case of `O=C(C1CCCCC1)N1CCN(S(=O)(=O)c2ccc3ccccc3c2)CC1` [Compound 8, Cyclohexyl[4-(naphthalene-2-sulfonyl)piperazin-1-yl]methanone], in assay [1], the IC50 is 1600 ± 100 nM. Further, the MIC90 in assay [2] (setting [3]) is over 100 µM.

Compound `O=C(NCCNS(=O)(=O)c1cccc2cnccc12)C1CCC1` [Compound 10, N-{2-[(isoquinoline-5-sulfonyl)amino]ethyl}cyclobutanecarboxamide] yielded an IC50 in assay [1] of 2700 ± 100 nM. In assay [2] (setting [3]), the MIC90 worked out at 100 µM (≈ 33.3 µg/mL).

With `O=C(Nc1ccc(Cl)c([N+](=O)[O-])c1)N1CCN(S(=O)(=O)c2cccc3cnccc23)CC1` [Compound 35, N-(4-chloro-3-nitrophenyl)-4-(isoquinolin-5-ylsulfonyl)piperazine-1-carboxamide], inhibition in assay [1] was half-maximal at 5600 ± 200 nM (IC50). The MIC90 in assay [2] (setting [3]) was 12.5 µM (≈ 5.95 µg/mL).

`O=C(Nc1ccc(F)c(Cl)c1)N1CCN(S(=O)(=O)c2cccc3cnccc23)CC1` [Compound 36, N-(3-chloro-4-fluorophenyl)-4-(isoquinolin-5-ylsulfonyl)piperazine-1-carboxamide] displayed an IC50 in assay [1] of 42 ± 2 nM. For the same compound, the MIC90 in assay [2] (setting [3]) came out at 31.2 µM (≈ 14 µg/mL).

Regarding `N#Cc1ccc(C(=O)N2CCN(S(=O)(=O)c3cccc4cnccc34)CC2)cc1` [Compound 17, 4-[4-(isoquinoline-5-sulfonyl)piperazine-1-carbonyl]benzonitrile], the IC50 in assay [1] was found to be 16500 ± 500 nM. The MIC90 in assay [2] (setting [3]) was found to be 100 µM (≈ 40.6 µg/mL).

With `O=C(C1CCCCC1)N1CCN(S(=O)(=O)c2cccc3cnccc23)CC1` [Compound 1, Cyclohexyl[4-(isoquinoline-5-sulfonyl)piperazin-1-yl]methanone], in assay [1], it took 100 ± 10 nM to reach half-maximal inhibition (IC50). In assay [2] (setting [3]), the MIC90 amounted to 2 µM (≈ 0.775 µg/mL).

Consider `O=S(=O)(c1cccc2cnccc12)N1CCN(C(=S)Nc2ccc3c(c2)OCO3)CC1` [Compound 42, N-(benzo[d][1,3]dioxol-5-yl)-4-(isoquinolin-5-ylsulfonyl)piperazine-1-carbothioamide], for which, in assay [1], half-maximal inhibition (IC50) required 1100 ± 100 nM. The MIC90 in assay [2] (setting [3]) came out at 50 µM (≈ 22.8 µg/mL). In addition, the “fold reduction in whole-cell activity” value in assay [2] (relative to compound 41) is 8 fold.
